Patent US20240327392A1, “HETEROCYCLOALKYL-SUBSTITUTED POLYHETEROAZOLE DERIVATIVES AS MEDICAMENTS FOR TREATING AND/OR PREVENTING RS VIRUS INFECTIONS” (ALBIUS SCIENCES ALPHA PRIVATE LIMITED, priority 2021, published 2024)

Tested on: human RS virus A2 strain
Assay: In vitro test for anti-RS virus proliferation inhibitory activity (quantitative RT-PCR of RS virus RNA copy number in infected Vero cells)
Assay type: cell-based
Details: 72 h; Vero cells infected with human RS virus A2 strain, 3 days of incubation, RS virus N gene RNA copy number by quantitative RT-PCR; read-out: Anti-RS virus Activity
In short: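 Vero cells infected with RSV A2 (1.7×10^4 TCID50/mL in inoculum mix) with compound in 10% FCS EMEM, 3 days at 37 °C, 5% CO2. Lysate viral N-gene RNA quantified by one-step SYBR qRT-PCR; copy number by comparative Ct relative to untreated infected cells.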

Row | IC50 [µM] | SMILES
1 | 10 to 50 | CC(C)CS(=O)(=O)N1CCCC[C@H]1c1nc(CCCc2ccccc2)no1 [Compound 2A, 3-(3-phenylpropyl)-5-[(2S)-1-isobutylsulfonylpiperidin-2-yl]-1,2,4-oxadiazole]
2 | 10 to 50 | O=S(=O)(C1CCCCC1)N1CCC[C@H]1c1nc(CCCc2ccccc2)no1 [Compound 1B, 3-(3-phenylpropyl)-5-[(2S)-1-cyclohexylsulfonylpyrrolidin-2-yl]-1,2,4-oxadiazole]
3 | < 10 | O=S(=O)(C1CCCCC1)N1CCCC[C@H]1c1nc(CCCc2ccccc2)no1 [Compound 2B, 3-(3-phenylpropyl)-5-[(2S)-1-cyclohexylsulfonylpiperidin-2-yl]-1,2,4-oxadiazole]

Same assay, conditions: 72 h; Vero cells infected with human RS virus A2 strain, 3 days of incubation, RS virus RNA copy number by quantitative RT-PCR; read-out: Anti-RS virus Activity

Row | SMILES | IC50 [µM]
4 | CC(C)(C)S(=O)(=O)N1CCCC[C@H]1c1nc(CCCc2ccccc2)no1 [Compound 2X, (S)-5-(1-(tert-butylsulfonyl)piperidin-2-yl)-3-(3-phenylpropyl)-1,2,4-oxadiazole] | < 10
5 | CN(C)c1cccc2c(S(=O)(=O)N3C[C@H](F)C[C@H]3c3nc(CCCc4ccccc4)no3)cccc12 [Compound 8AL, 5-(((2S,4R)-4-fluoro-2-(3-(3-phenylpropyl)-1,2,4-oxadiazole-5-yl)pyrrolidin-1-yl)sulfonyl)-N,N-dimethylnaphthalen-1-amine] | < 10
6 | CC(C)CCN1CCCC[C@H]1c1nc(CCCc2ccccc2)no1 [Compound 2T, (S)-5-(1-isopentylpiperidin-2-yl)-3-(3-phenylpropyl)-1,2,4-oxadiazole] | 10 to 50
7 | CC(C)(C)OC(=O)N1CC(CS(=O)(=O)N2CC(CC3CCC3)CC2c2nc(CCCc3ccccc3)no2)C1 (stereo not shown) [Compound 6AM, tert-buthyl 3-(((4-(cyclobuthylmethyl)-2-(3-(3-phenylpropyl)-1,2,4-oxadiazole-5-yl)pyrrolidin-1-yl)sulfonyl)methyl)azetidin-1-carboxylate] | < 10
8 | CC(C)(C)OC(=O)N1CCC(S(=O)(=O)N2CC3(CC3)C[C@H]2c2nc(CCCc3ccccc3)no2)CC1 [Compound 5AO, tert-buthyl (S)-4-((6-(3-(3-phenylpropyl)-1,2,4-oxadiazole-5-yl)-5-azaspiro[2.4]heptan-5-yl)sulfonyl)piperidin-1-carboxylate] | < 10
9 | O=S(=O)(C1CCCCC1)N1CC(CC2CCC2)CC1c1nc(CCCc2ccccc2)no1 (stereo not shown) [Compound 6B, 3-(3-phenylpropyl)-5-(1-cyclohexylsulfonyl-4-cyclobutylmethylpyrrolidin-2-yl)-1,2,4-oxadiazole] | < 10
10 | O=C(OCc1ccccc1)N1CCC[C@H]1c1nc(CCCc2ccccc2)no1 [Compound 1J, Benzyl (S)-2-(3-(3-phenylpropyl)-1,2,4-oxadiazol-5-yl) pyrrolidine-1-carboxylate] | < 10
11 | O=S(=O)(c1ccc(F)cc1)N1C[C@H](c2ccccc2)C[C@H]1c1nc(CCCc2ccccc2)no1 [Compound 7AJ] | < 10
12 | O=S(=O)(N1CCCC[C@H]1c1nc(CCCc2ccccc2)no1)C12CC3CC(CC(C3)C1)C2 [Compound 2AG, 5-((S)-1-((adamantan-1-yl)sulfonyl)piperidin-2-yl)-3-(3-phenylpropyl)-1,2,4-oxadiazole] | 10 to 50
13 | CC(C)(C)OC(=O)N1C[C@H](c2ccccc2)C[C@H]1c1nc(CCCCc2ccccc2)no1 [Compound C4-7-1, Tert-butyl (2S,4S)-4-phenyl-2-(3-(4-phenylbutyl)-1,2,4-oxadiazol-5-yl)pyrrolidine-1-carboxylate] | < 10
14 | O=S(=O)(Cc1ccccc1)N1C[C@H](F)C[C@H]1c1nc(CCCc2ccccc2)no1 [Compound 8E, 3-(3-phenylpropyl)-5-[(2S,4R)-1-benzylsulfonyl-4-fluoropyrrolidin-2-yl]-1,2,4-oxadiazole] | < 10
15 | O=S(=O)(C1CCCCC1)N1CC2(CC2)C[C@H]1c1nc(CCCc2ccccc2)no1 [Compound 5B, 3-(3-phenylpropyl)-5-{(6S)-5-cyclohexylsulfonyl-5-azaspiro[2.4]hept-6-yl}-1,2,4-oxadiazole] | < 10
16 | COc1ccc(S(=O)(=O)N2CC3(CC3)C[C@H]2c2nc(CCCc3ccccc3)no2)cc1 [Compound 5AI, (S)-5-(5-((4-methoxyphenyl)sulfonyl)-5-azabicyclo[2.4]heptan-6-yl)-3-(3-phenylpropyl)-1,2,4-oxadiazole] | 10 to 50
17 | CCOC(=O)C1CCN(S(=O)(=O)N2CC3(CC3)C[C@H]2c2nc(CCCc3ccccc3)no2)CC1 [Compound 5AC, ethyl (S)-1-((6-(3-(3-phenylpropyl)-1,2,4-oxadiazole-5-yl)-5-azaspiro[2.4]heptan-5-yl)sulfonyl)piperidin-4-carboxylate] | 10 to 50
18 | CC(C)(C)OC(=O)N1CCC(CS(=O)(=O)N2C[C@H](c3ccccc3)C[C@H]2c2nc(CCCc3ccccc3)no2)CC1 [Compound 7AN, tert-buthyl 4-((((2S,4S)-4-phenyl2-(3-(3-phenylpropyl)-1,2,4-oxadiazole-5-yl)pyrrolidin-1-yl)sulfonyl)methyl)piperidin-1-carboxylate] | < 10
19 | CS(=O)(=O)N1CC(CC2CCC2)CC1c1nc(CCCc2ccccc2)no1 (stereo not shown) [Compound 6C, 3-(3-phenylpropyl)-5-(1-methanesulfonyl-4-cyclobutylmethylpyrrolidin-2-yl)-1,2,4-oxadiazole] | < 10
20 | CC(C)CS(=O)(=O)N1CC(c2ccccc2)C[C@H]1c1nc(CCCc2ccccc2)no1 (stereo in doubt) [Compound 7A, 3-(3-phenylpropyl)-5-[(2S,4S)-1-isobutylsulfonyl-4-phenylpyrrolidin-2-yl]-1,2,4-oxadiazole] | < 10
21 | CCOC(=O)C1CCN(S(=O)(=O)N2C[C@H](c3ccccc3)C[C@H]2c2nc(CCCc3ccccc3)no2)CC1 [Compound 7AC, ethyl 1-(((2S,4S)-4-phenyl2-(3-(3-phenylpropyl)-1,2,4-oxadiazole-5-yl)pyrrolidin-1-yl)sulfonyl)piperidin-4-carboxylate] | 10 to 50
22 | O=S(=O)(Cc1ccccc1)N1CC2(CC2)C[C@H]1c1nc(CCCc2ccccc2)no1 [Compound 5E, 3-(3-Phenylpropyl)-5-{(6S)-5-benzylsulfonyl-5-azaspiro[2.4]hept-6-yl}-1,2,4-oxadiazole] | 10 to 50
23 | [O-][S+](N1CCCC[C@H]1c1nc(CCCc2ccccc2)no1)C12CC3CC(CC(C3)C1)C2 (stereo partly drawn) [2AF′, 5-((2S)-1-((adamantan-1-yl)sulfinyl)piperidin-2-yl)-3-(3-phenylpropyl)-1,2,4-oxadiazole] | 10 to 50
24 | CS(=O)(=O)N1C[C@H](F)C[C@H]1c1nc(CCCc2ccccc2)no1 [Compound 8C, 3-(3-phenylpropyl)-5-[(2S,4R)-1-methanesulfonyl-4-fluoropyrrolidin-2-yl]-1,2,4-oxadiazole] | > 50

Other lines, results leading:

Row | IC50 [µM] | SMILES
25 | < 10 | CC(C)(C)OC(=O)N1C[C@H](c2ccccc2)C[C@H]1c1nnc(CCCc2ccccc2)[nH]1 [Compound 19-1, Tert-butyl (2S,4S)-4-phenyl-2-(5-(3-phenylpropyl)-4H-1,2,4-triazol-3-yl)pyrrolidine-1-carboxylate]
26 | 10 to 50 | N#C[C@H]1C[C@@H](c2nc(CCCc3ccccc3)no2)N(S(=O)(=O)c2ccc(F)cc2)C1 [Compound 41AJ, (3S,5S)-1-((4-fluorophenyl)sulfonyl)-5-(3-(3-phenylpropyl)-1,2,4-oxadiazol-5-yl)pyrrolidine-3-carbonitrile]
27 | 10 to 50 | NC(=O)[C@H]1C[C@@H](c2nc(CCCc3ccccc3)no2)N(S(=O)(=O)c2ccc(F)cc2)C1 [Compound 42AJ, (3S,5S)-1-((4-fluorophenyl)sulfonyl)-5-(3-(3-phenylpropyl)-1,2,4-oxadiazol-5-yl)pyrrolidine-3-carboxamide]
28 | 10 to 50 | CC(C)(C)OC(=O)N1[C@@H]2CC[C@@H](C2)[C@H]1c1nnc(Cc2cc3ccccc3[nH]2)[nH]1 [Compound 28-1, Tert-butyl (1R,3S,4S)-3-(5-((1H-indol-2-yl)methyl)-4H-1,2,4-triazol-3-yl)-2-azabicyclo[2.2.1]heptane-2-carboxylate]
29 | < 10 | CC(C)CS(=O)(=O)N1CCC[C@H]1c1nc(CNC(=O)c2cccc3ccccc23)no1 [Compound 11A, 3-[(1-naphthoylamino)methyl]-5-[(2S)-1-isobutylsulfonylpyrrolidin-2-yl]-1,2,4-oxadiazole]
30 | 10 to 50 | CC(C)CS(=O)(=O)N1[C@@H]2CC[C@@H](C2)[C@H]1c1nnc(CCc2ccncc2)[nH]1 [Compound 25A, (1R,3S,4S)-2-(isobutylsulfonyl)-3-(5-(2-(pyridin-4-yl)ethyl)-4H-1,2,4-triazol-3-yl)-2-azabicyclo[2.2.1]heptane]
31 | 10 to 50 | CC(C)(C)OC(=O)N1C[C@H]2CC[C@]1(c1nc(CCc3ccncc3)no1)CC2 [Compound 13-1, Tert-butyl (1s,4s)-1-(3-(2-(pyridin-4-yl)ethyl)-1,2,4-oxadiazol-5-yl)-2-azabicyclo[2.2.2]octane-2-carboxylate]
32 | 10 to 50 | CC(C)(C)OC(=O)NCc1noc([C@@H]2C[C@@H](c3ccccc3)CN2S(=O)(=O)c2ccc(F)cc2)n1 [Compound 43AJ, Tert-butyl ((5-((2S,4S)-1-((4-fluorophenyl)sulfonyl)-4-phenylpyrrolidin-2-yl)-1,2,4-oxadiazol-3-yl)methyl) carbamate]
33 | 10 to 50 | CC(C)(C)OC(=O)N1CCCC[C@H]1c1nc(CC(=O)Nc2ccccc2)no1 [Compound 23-1, Tert-butyl (S)-2-(3-(2-oxo-2-(phenylamino)ethyl)-1,2,4-oxadiazol-5-yl)piperidine-1-carboxylate]
34 | 10 to 50 | O=C(NCc1ccccc1)N1[C@@H]2CC[C@@H](C2)[C@H]1c1nnc(Cc2c[nH]c3ccccc23)[nH]1 [Compound 24F, (1R,3S,4S)-3-(5-((1H-indol-3-yl)methyl)-4H-1,2,4-triazol-3-yl)-N-benzyl-2-azabicyclo[2.2.1]heptane-2-carboxamide]
